One experiment concerns the target JAK3 (Homo sapiens (Human), UniProt P52333). The experiment in a line: Biochemical JAK kinase assay (LanthaScreen), JAK3. The conditions noted are these: converted from pIC50 using Cheng-Prusoff; ATP 1.6 μM. As for the experimental part:
(§1) Assay 1: Biochemical JAK Kinase Assays
(§2) A panel of four LanthaScreen JAK biochemical assays (JAK1, 2, 3 and Tyk2) were carried in a common kinase reaction buffer (50 mM HEPES, pH 7.5, 0.01% Brij-35, 10 mM MgCl2, and 1 mM EGTA). Recombinant GST-tagged JAK enzymes and a GFP-tagged STAT1 peptide substrate were obtained from Life Technologies.
(§3) Serially diluted compounds were pre-incubated with each of the four JAK enzymes and the substrate in white 384-well microplates (Corning) at ambient temperature for 1 h. ATP was subsequently added to initiate the kinase reactions in 10 μL total volume, with 1% DMSO. […] Kinase reactions were allowed to proceed for 1 hour at ambient temperature before a 10 μL preparation of EDTA (10 mM final concentration) and Tb-anti-pSTAT1 (pTyr701) antibody (Life Technologies, 2 nM final concentration) in TR-FRET dilution buffer (Life Technologies) was added. The plates were allowed to incubate at ambient temperature for 1 h before being read on the EnVision reader (Perkin Elmer). Emission ratio signals (520 nm/495 nm) were recorded and utilized to calculate the percent inhibition values based on DMSO and background controls.
(§4) For dose-response analysis, percent inhibition data were plotted vs. compound concentrations, and IC50 values were determined from a 4-parameter robust fit model with the Prism software (GraphPad Software). Results were expressed as pIC50 (negative logarithm of IC50) and subsequently converted to pKi (negative logarithm of dissociation constant, Ki) using the Cheng-Prusoff equation.
On the technique in general: In TR-FRET formats the signal depends on donor and acceptor labels being close together.

For experiment [1], the system named is TSLP-evoked TARC release in human peripheral blood mononuclear cells. Kind of experiment: Inhibition of TSLP-evoked TARC release in human peripheral blood mononuclear cells. The conditions noted are these: human PBMC, 3 to 5 donors, TSLP 10 ng/mL, 48 hours, ELISA; read-out: pIC50 ± st. dev., inhibition of TSLP-evoked TARC release (converted). The experiment is classed as cell-based. From the text: Assay 4: Inhibition of TSLP-Evoked TARC Release in Human Peripheral Blood Mononuclear Cells
Thymic stromal lymphopoietin (TSLP) and thymus and activation-regulated chemokine (TARC) are overexpressed in asthmatic airways, and correlate with disease severity. In the lungs, TSLP may be released by bronchial epithelial cells in response to allergens and viral infections. TSLP signals through an IL-7Rα/TSLPR heterodimer found in a broad range of tissues and cell types, including epithelial cells, endothelial cells, neutrophils, macrophages, and mast cells. The binding of TSLP to its receptor induces a conformational change that activates JAK1 and JAK2 to phosphorylate various transcription factors, including STAT3 and STAT5. In immune cells, this triggers a cascade of intracellular events that result in cell proliferation, anti-apoptosis, dendritic cell migration, and production of Th2 cytokines and chemokines. In peripheral blood mononuclear cells (PBMC), TSLP has a proinflammatory effect by activating myeloid dendritic cells to attract and stimulate T cells, a process mediated by the chemoattractant TARC.
The potencies of the test compounds were measured for inhibition of TARC release.
PBMC aliquots (previously isolated from whole blood and frozen in aliquots at −80° C.) from 3 to 5 donors were thawed at 37° C. and added dropwise to 40 mL pre-warmed, sterile-filtered, complete RPMI media in 50 mL Falcon tubes. Cells were pelleted and resuspended in complete media at 2.24×10^6 cells/mL. […] Cells were allowed to rest for 1 hour at 37° C. with 5% CO2.
Compounds were received as 10 mM stock solutions in DMSO. 3.7-fold serial dilutions were performed to generate 9 concentrations of test compound in DMSO at 300× the final assay test concentration. […] 95 μL of 0.2% DMSO in complete media was added to the untreated control wells. Cells were pre-treated with compound for 1 hour at 37° C. with 5% CO2 prior to stimulation.
Immediately prior to use, an aliquot was thawed and prepared at 20× the final assay concentration in complete media. 10 μL of 20×TSLP was added to each well of PBMC, for a final assay concentration of 10 ng/mL. 10 μL of complete media was added to the unstimulated control wells. Cells were stimulated in the presence of compound for 48 hours at 37° C. with 5% CO2.
Following stimulation, the cell culture supernatants were harvested and TARC levels were detected by enzyme-linked immunosorbent assay (ELISA), using Human CCL17/TARC Quantikine ELISA Kit (R&D Systems # DDN00) according to the manufacturer's instructions.
For dose response analysis, the log [test compound (M)] was plotted versus the percent response values for each donor, and IC50 values were determined using a nonlinear regression analysis with GraphPad Prism Software using the 4-parameter sigmoidal dose-response algorithm with variable slope. Data are expressed as mean pIC50 (negative decadic logarithm IC50) values calculated from pIC50 values of individual donors and rounded to one decimal place.
A general note: An ELISA detects its analyte on a solid surface through an enzyme-linked reagent.

The target in the next experiment is Tyk2 (Homo sapiens (Human), UniProt P29597). The experiment in a line: Biochemical JAK kinase assay (LanthaScreen), Tyk2. The conditions noted are these: converted from pIC50 using Cheng-Prusoff; ATP 10 μM. As for the experimental part: as §1, §2, §3, §4
Experiment [2] relates to IL-2 stimulated STAT5 phosphorylation in Tall-1 human T cell line. The experiment in a line: Inhibition of IL-2 stimulated pSTAT5 in Tall-1 T cells. The following applies: IL-2 300 ng/mL, pSTAT5 AlphaLisa, Tall-1 cells, read-out: Tall-1 pIC50 (converted). In kind it is cell-based. As to the method:
Assay 2: Inhibition of IL-2 Stimulated pSTAT5 in Tall-1 T Cells
The potency of test compounds for inhibition of interleukin-2 (IL-2) stimulated STAT5 phosphorylation was measured in the Tall-1 human T cell line (DSMZ) using AlphaLisa.
Phosphorylated STAT5 was measured via the AlphaLISA SureFire Ultra pSTAT5 (Tyr694/699) kit (PerkinElmer).
Compounds were serially diluted in DMSO and dispensed acoustically to empty wells. Assay media (phenol red-free DMEM (Life Technologies) supplemented with 10% FBS (ATCC)) was dispensed (4 μL/well) and plates shaken at 900 rpm for 10 mins. Cells were seeded at 45,000 cells/well in assay media (4 μL/well), and incubated at 37° C., 5% CO2 for 1 hour, followed by the addition of IL-2 (R&D Systems; final concentration 300 ng/mL) in pre-warmed assay media (4 μL) for 30 minutes. […] The lysate was shaken at 900 rpm for 10 minutes at room temperature (RT). Phosphorylated STAT5 was measured via the pSTAT5 AlphaLisa kit (PerkinElmer). Freshly prepared acceptor bead mixture was dispensed onto lysate (5 μL) under green filtered <100 lux light. Plates were shaken at 900 rpm for 2 mins, briefly spun down, and incubated for 2 hrs at RT in the dark. Donor beads were dispensed (5 μL) under green filtered <100 lux light. Plates were shaken at 900 rpm for 2 minutes, briefly spun down, and incubated overnight at RT in the dark. Luminescence was measured with excitation at 689 nm and emission at 570 nm using an EnVision plate reader (PerkinElmer) under green filtered <100 lux light.
To determine the inhibitory potency of test compounds in response to IL-2, the average emission intensity of beads bound to pSTAT5 was measured in a human T cell line. IC50 values were determined from analysis of the inhibition curves of signal intensity versus compound concentration. Data are expressed as pIC50 (negative decadic logarithm IC50) values (mean±standard deviation).

Tyk2, sequence (P29597 whole entry): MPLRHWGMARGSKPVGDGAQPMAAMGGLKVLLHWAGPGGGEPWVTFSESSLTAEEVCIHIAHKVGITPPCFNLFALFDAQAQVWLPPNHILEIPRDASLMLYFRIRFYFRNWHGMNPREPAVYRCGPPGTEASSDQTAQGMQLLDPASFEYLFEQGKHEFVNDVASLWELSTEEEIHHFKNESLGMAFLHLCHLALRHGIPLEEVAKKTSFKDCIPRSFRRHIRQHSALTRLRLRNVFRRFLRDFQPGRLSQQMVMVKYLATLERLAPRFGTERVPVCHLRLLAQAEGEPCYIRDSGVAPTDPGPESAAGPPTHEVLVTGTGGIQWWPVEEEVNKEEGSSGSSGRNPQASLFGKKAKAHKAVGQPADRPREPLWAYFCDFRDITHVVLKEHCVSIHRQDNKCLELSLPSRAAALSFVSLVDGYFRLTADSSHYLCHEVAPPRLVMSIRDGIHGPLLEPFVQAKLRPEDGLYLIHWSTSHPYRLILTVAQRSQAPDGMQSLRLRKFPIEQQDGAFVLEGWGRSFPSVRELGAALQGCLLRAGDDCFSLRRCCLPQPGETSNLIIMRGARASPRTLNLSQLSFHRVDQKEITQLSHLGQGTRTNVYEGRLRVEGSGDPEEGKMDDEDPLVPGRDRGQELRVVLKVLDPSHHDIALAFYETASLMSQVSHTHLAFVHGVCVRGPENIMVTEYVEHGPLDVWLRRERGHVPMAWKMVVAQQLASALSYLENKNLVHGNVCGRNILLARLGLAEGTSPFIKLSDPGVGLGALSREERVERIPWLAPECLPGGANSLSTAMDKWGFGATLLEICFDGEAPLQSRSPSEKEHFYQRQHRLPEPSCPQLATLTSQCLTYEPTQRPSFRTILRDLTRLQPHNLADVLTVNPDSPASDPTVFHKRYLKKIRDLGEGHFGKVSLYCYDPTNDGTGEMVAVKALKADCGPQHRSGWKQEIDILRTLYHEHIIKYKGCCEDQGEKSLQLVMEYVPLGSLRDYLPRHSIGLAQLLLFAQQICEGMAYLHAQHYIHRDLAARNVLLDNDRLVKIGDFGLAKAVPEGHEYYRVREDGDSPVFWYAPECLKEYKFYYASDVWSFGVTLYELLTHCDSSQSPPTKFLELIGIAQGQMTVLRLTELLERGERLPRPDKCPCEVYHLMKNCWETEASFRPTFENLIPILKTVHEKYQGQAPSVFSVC
JAK3, sequence (P52333 whole entry): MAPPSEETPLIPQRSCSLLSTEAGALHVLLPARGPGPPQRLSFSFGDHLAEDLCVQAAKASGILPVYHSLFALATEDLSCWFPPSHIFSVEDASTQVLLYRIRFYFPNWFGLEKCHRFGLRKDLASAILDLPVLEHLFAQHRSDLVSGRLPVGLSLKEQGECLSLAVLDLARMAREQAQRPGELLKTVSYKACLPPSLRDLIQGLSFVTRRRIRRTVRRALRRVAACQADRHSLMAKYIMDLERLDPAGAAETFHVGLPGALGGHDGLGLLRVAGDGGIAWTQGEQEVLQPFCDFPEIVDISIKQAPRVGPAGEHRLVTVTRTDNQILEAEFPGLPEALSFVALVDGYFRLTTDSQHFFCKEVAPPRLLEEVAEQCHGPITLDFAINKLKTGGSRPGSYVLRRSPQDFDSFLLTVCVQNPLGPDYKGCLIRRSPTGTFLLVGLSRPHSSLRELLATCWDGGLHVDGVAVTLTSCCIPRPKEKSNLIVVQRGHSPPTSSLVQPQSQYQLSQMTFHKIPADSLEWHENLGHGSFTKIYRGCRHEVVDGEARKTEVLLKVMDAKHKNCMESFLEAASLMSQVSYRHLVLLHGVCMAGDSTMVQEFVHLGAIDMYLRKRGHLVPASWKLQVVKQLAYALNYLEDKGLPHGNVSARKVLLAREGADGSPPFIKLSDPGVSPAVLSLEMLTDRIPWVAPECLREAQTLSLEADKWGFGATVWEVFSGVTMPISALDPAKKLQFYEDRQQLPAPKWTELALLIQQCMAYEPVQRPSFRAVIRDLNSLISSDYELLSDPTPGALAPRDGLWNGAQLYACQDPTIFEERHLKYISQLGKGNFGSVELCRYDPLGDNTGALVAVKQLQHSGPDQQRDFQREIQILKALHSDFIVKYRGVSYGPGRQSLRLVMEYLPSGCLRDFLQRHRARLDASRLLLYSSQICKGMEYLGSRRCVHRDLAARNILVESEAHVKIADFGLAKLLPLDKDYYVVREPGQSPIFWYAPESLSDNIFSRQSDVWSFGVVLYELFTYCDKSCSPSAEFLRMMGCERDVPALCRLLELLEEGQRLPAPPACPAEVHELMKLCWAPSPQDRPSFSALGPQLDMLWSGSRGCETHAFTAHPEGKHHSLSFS

Regarding `CCc1cc(O)c(F)cc1-c1ccc2c(-c3nc4c([nH]3)CN(C(C)C)[C@H](C(=O)N3CC(N(C)C)C3)C4)n[nH]c2c1` [Example 8, (S)-(3-(dimethylamino)azetidin-1-yl)(2-(6-(2-ethyl-5-fluoro-4-hydroxyphenyl)-1H-indazol-3-yl)-5-isopropyl-4,5,6,7-tetrahydro-3H-imidazo[4,5-c]pyridin-6-yl)methanone], the “JAK3 pKi” value at JAK3 amounted to 10.1. Besides, the IC50 is 100 nM in experiment [1] and 1.58 nM in experiment [2]. Moreover, the “Tyk2 pKi” value on Tyk2 stood at 9.5.

Values taken from patent publication US10844057B2, “Process for preparing JAK inhibitors and intermediates thereof” (priority 2018, dated 2020).
